Results published in PubChem BioAssay (NCI).
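Results reflect a 48-hour exposure of cells in 96-well plates to compound at five concentrations. TGI is the concentration that stops growth completely.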

Key:
Experiment in all cases: NCI tumour cell line growth inhibition, 48 h
A498 renal = tested on: A498 renal
CCRF-CEM leukemia = tested on: CCRF-CEM leukemia
EKVX NSCLC = tested on: EKVX NSCLC
HCT-15 colon = tested on: HCT-15 colon
HOP-62 NSCLC = tested on: HOP-62 NSCLC
HOP-92 NSCLC = tested on: HOP-92 NSCLC
MDA-N = tested on: MDA-N
NCI-H460 lung = tested on: NCI-H460 lung
NCI/ADR-RES ovarian = tested on: NCI/ADR-RES ovarian
OVCAR-4 ovarian = tested on: OVCAR-4 ovarian
RXF 393 renal = tested on: RXF 393 renal
U251 CNS = tested on: U251 CNS
UACC-62 melanoma = tested on: UACC-62 melanoma

Compound | TGI (A498 renal) [µM] | TGI (CCRF-CEM leukemia) [µM] | TGI (EKVX NSCLC) [µM] | TGI (HCT-15 colon) [µM] | TGI (HOP-62 NSCLC) [µM] | TGI (HOP-92 NSCLC) [µM] | TGI (MDA-N) [µM] | TGI (NCI-H460 lung) [µM] | TGI (NCI/ADR-RES ovarian) [µM] | TGI (OVCAR-4 ovarian) [µM] | TGI (RXF 393 renal) [µM] | TGI (U251 CNS) [µM] | TGI (UACC-62 melanoma) [µM]
CCOC(=O)c1sc2nc(SC)nc(Nc3ccc(OC)c(OC)c3)c2c1N | 37.3 | > 100 | > 100 | > 100 | 26 | 25.4 | > 100 | > 100 | > 100 | > 100 | 8.97 | > 100 | > 100
O=C(O)/C(=C\c1ccccc1)Cc1ccccc1 | > 100 | > 100 | > 100 | > 100 | > 100 | > 100 | > 100 | > 100 | > 100 | > 100 | > 100 | > 100 | > 100
Cc1cc2c3c(ccc4ncc(c43)CN2c2ccc(NS(C)(=O)=O)cc2)[nH]1 | > 100 | > 100 | > 100 | > 100 | 46.1 | 92.2 | > 100 | > 100 | > 100 | > 100 | > 100 | > 100 | > 100
CS(=O)(=O)C(=Cc1ccccc1Cl)S(C)(=O)=O | > 100 | > 100 | > 100 | > 100 | > 100 | > 100 | > 46.4 | > 100 | > 100 | > 100 | > 100 | > 100 | > 100
COc1cc(/C=C2\NC(=O)N(/C=C3\C(=O)Oc4ccccc4C3=O)C2=O)ccc1O | > 100 | 92.6 | > 100 | > 100 | > 100 | > 100 | > 100 | > 100 | > 100 | > 100 | 99.2 | > 100 | > 100
C=C1C(=O)C=C2C=C3C(=O)C(C)(C)C[C@]3(O)C12C (stereo partly specified) | 23.2 | 1.37 | 51.2 | 11.7 | 53.3 | 3.24 | 13.5 | 38.2 | > 100 | 12.7 | 3.33 | 34 | 17.8
CCOC(=O)Cn1nc2ccc(Nc3nc4ccccc4nc3C(=O)OCC)cc2n1 | > 100 | > 100 | > 100 | > 100 | > 100 | > 100 | > 100 | > 100 | > 100 | > 100 | 58.2 | > 100 | > 100
CN1N=C(c2ccncc2)OC1c1ccc(Cl)c(Cl)c1 (stereo unspecified) | > 100 | > 100 | > 100 | > 100 | > 100 | > 100 | > 100 | > 100 | > 100 | > 100 | > 100 | > 100 | > 100
COc1ccc(-c2nc3ccc(C)cc3o2)c(OC)c1 | 46.5 | 65.8 | 63 | 58.8 | > 56 | > 66.8 | 64.4 | 65.6 | 99.9 | 74.1 | 53.8 | 65 | 70.2
COc1cc(CNC(=O)CCCCCCCC/C=C/Br)ccc1O | > 10 | > 10 | > 10 | > 10 | > 10 | > 10 | > 10 | > 10 | > 10 | > 10 | > 10 | > 10 | > 10
CC[C@H](CCCCC1CC[C@@H]2CC(=O)C[C@H]12)OC (stereo partly specified) | > 100 | > 100 | > 100 | > 100 | > 100 | > 100 | > 100 | > 100 | > 100 | > 100 | > 100 | > 100 | > 100
CC(C)(C)SC1=CCC[C@@H](P(=O)(c2ccccc2)c2ccccc2)[C@@H]2CCC[C@@H]12 | 29.4 | 60.6 | 33.7 | 33 | 31.8 | 28.9 | 30.3 | 30.8 | 35.1 | 31.4 | 29.9 | 33.3 | 24.9
CCCCNc1nc(SC)nc2nc[nH]c12 | > 89.2 | > 100 | > 100 | > 100 | > 100 | > 100 | > 100 | > 100 | > 100 | > 100 | > 100 | > 100 | > 100
COC(=O)[C@]1(c2cc3ccccc3[nH]2)CC2CN(CC(=O)N(C)OC)C1C1OC(C)(C)OC21 (stereo partly specified) | 91.7 | > 100 | > 100 | > 100 | > 100 | > 100 | > 100 | > 100 | > 100 | > 100 | > 100 | > 100 | > 100
COC(=O)C(Cc1ccccc1)NS(=O)(=O)c1ccc(-c2c3nc(c(-c4ccc(S(=O)(=O)NC(Cc5ccccc5)C(=O)OC)cc4)c4ccc([nH]4)c(-c4ccc(S(=O)(=O)NC(Cc5ccccc5)C(=O)OC)cc4)c4nc(c(-c5ccc(S(=O)(=O)NC(Cc6ccccc6)C(=O)OC)cc5)c5ccc2[nH]5)C=C4)C=C3)cc1 (stereo unspecified) | > 100 | > 100 | > 100 | > 100 | > 100 | > 100 | > 100 | > 100 | > 100 | > 100 | > 100 | > 100 | > 100
COc1cc2cc(C(=O)N3CC(COS(C)(=O)=O)c4c3cc([N+](=O)[O-])c3ccccc43)[nH]c2c(OC)c1OC (stereo unspecified) | 53 | > 31.6 | > 31.6 | > 31.6 | > 31.6 | > 31.6 | > 100 | > 31 | > 31.6 | > 31.6 | > 100 | > 31.6 | > 31.6
Cc1ccc(S(=O)(=O)n2ccn3c(=O)cc(C)nc23)cc1 | > 10 | > 10 | > 10 | > 10 | > 10 | > 10 | > 10 | > 10 | > 10 | > 10 | > 10 | > 10 | > 10
CC(=O)OC1CC(OC2C(O)CC(OC3C(O)CC(OC4CCC5(C)C(CCC6C5CC(O)C5(C)C(C7=CC(=O)OC7)CCC65O)C4)OC3C)OC2C)OC(C)C1O (stereo unspecified) (tested in a mixture with another compound) | 0.307 | > 100 | 0.0381 | 0.107 | 0.152 | 0.182 | 0.147 | 0.0368 | 0.0732 | 0.0538 | 0.0812 | 0.0801 | 0.128
CC(C)(C)OC(=O)C(C1NC(C(=O)O)C(C)(C)S1)N1C(=O)c2ccccc2C1=O (stereo unspecified) | > 100 | > 100 | > 100 | > 100 | > 100 | > 100 | > 100 | > 100 | > 100 | > 100 | > 100 | > 100 | > 100
CN1c2ccccc2C2c3c(O)ccc(O)c3C=C([N+](=O)[O-])C21 (stereo unspecified) | 5.47 | > 100 | 7.63 | 6.41 | 5.96 | 5.84 | 1.5 | 6.02 | > 20 | 2.81 | 15.5 | 4.84 | 2.66
Cn1cc(-c2ccc(CCOC3CCCCO3)cc2)c2c(C#N)cccc21 (stereo unspecified) | > 100 | > 100 | > 100 | > 100 | > 100 | > 100 | > 100 | > 100 | > 100 | > 100 | > 100 | > 100 | > 100
COc1ccc(OC)c(C2CCc3cnc4nc(N)nc(N)c4c3C2)c1 (stereo unspecified) | > 100 | > 100 | > 100 | > 100 | > 100 | > 100 | > 100 | > 100 | > 100 | > 100 | 83.3 | > 100 | > 100
